Publication PMC3885398, “Evaluation of the Antitumor Effects of BPR1J-340, a Potent and Selective FLT3 Inhibitor, Alone or in Combination with an HDAC Inhibitor, Vorinostat, in AML Cancer” (PLoS ONE, 2014)
“And” between values parts separate entries of the source, which are not always exact repeats. Equal entries are not always repeated.

Legend:
[1] = biological target: FLT3-ITD (Homo sapiens, UniProt P36888, ITD); experiment: FLT3 phosphorylation in transfected HEK293T cells, Western blot; assay type: cell-based; conditions: HEK293T cells expressing FLT3-ITD, 1 hr, FLT3 ligand 50 ng/mL 5 min
Procedure: (§1) Cells were lysed in lysis buffer (50 mM Tris, pH 8.0, 150 mM NaCl, 1% Triton X-100, 0.5% sodium deoxycholate, 0.1% SDS, 1 mM sodium orthovanadate, 1 mM PMSF, and 1 mM DTT). Protein lysates were resolved by SDS-PAGE and transferred onto a polyvinylidene difluoride (PVDF) membrane (Millipore, Bedford, MA, USA). The membranes were immunoblotted with appropriate antibodies and detected using the SuperSignal reagent (Pierce, Rockford, IL, USA) followed by exposure to X-ray film.
(§2) To address whether BPR1J-340 was able to inhibit the FLT3 signaling pathway in FLT3-driven cells, MV4;11 cells were treated with different concentrations of BPR1J-340 for 1 hour, and the phosphorylation status of FLT3 and STAT5 (Signal Transducer and Activator of Transcription 5), a critical down-stream modulator that plays a major role in FLT3-ITD signal transduction for cell expansion and survival, was examined by Western blot analysis. […] To investigate the difference in sensitivity between FLT3-WT and the activating mutants FLT3-ITD and FLT3-D835Y to BPR1J-340, HEK293T cells engineered to express FLT3-WT or mutants FLT3 (FLT3-ITD, FLT3-D835Y) were analyzed. […]
(§3) Figure 2 BPR1J-340 inhibits FLT3-dependent signaling. […] The phosphorylation status of FLT3 and STAT5 were evaluated by Western blot analysis. […] The FLT3 phosphorylation status in the transfected cells was evaluated by Western blot analysis.

[2] = biological target: T1, FLT3-WT (Homo sapiens, UniProt P36888); experiment: as above; assay type: cell-based; conditions: HEK293T cells expressing FLT3-WT, 1 hr, FLT3 ligand 50 ng/mL 5 min
T1 construct: expressed in transfected cells; host or cells: HEK293T
Procedure: as §1, §2, §3

[3] = biological target: T2, FLT3 D835Y (Homo sapiens, UniProt P36888, D835Y); experiment: as above; assay type: cell-based; parameters: expressed in transfected cells; host or cells: HEK293T; conditions: HEK293T cells expressing FLT3-D835Y, 1 hr, FLT3 ligand 50 ng/mL 5 min
T2 sequence (P36888 27-993 D835Y): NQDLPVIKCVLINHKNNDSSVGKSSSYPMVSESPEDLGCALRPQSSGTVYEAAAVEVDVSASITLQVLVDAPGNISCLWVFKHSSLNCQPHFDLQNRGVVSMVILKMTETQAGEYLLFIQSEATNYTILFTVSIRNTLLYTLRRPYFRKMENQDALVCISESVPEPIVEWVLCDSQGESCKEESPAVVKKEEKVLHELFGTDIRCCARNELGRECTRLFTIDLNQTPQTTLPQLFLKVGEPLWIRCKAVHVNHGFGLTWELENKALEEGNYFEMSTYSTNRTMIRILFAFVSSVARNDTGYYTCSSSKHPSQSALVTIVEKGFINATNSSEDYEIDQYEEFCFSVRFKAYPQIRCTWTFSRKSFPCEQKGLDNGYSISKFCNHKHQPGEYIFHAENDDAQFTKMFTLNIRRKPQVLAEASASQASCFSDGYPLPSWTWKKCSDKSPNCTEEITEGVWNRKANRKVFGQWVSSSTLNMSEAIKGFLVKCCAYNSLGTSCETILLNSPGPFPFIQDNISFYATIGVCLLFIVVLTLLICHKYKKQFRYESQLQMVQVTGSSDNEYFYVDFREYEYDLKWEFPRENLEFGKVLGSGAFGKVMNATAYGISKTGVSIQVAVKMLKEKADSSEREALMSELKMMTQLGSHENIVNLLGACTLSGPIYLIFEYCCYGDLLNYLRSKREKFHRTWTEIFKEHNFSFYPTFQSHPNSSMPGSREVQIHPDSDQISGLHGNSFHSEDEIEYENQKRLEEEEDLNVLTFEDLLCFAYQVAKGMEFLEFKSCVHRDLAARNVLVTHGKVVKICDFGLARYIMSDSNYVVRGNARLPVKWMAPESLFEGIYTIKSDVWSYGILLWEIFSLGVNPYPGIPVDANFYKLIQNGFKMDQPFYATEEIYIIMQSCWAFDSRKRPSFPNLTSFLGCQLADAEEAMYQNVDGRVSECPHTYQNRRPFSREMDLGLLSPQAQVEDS
Procedure: as §1, §2, §3

[4] = biological target: FLT4 (VEGFR3) (Homo sapiens, UniProt P35916); experiment: VEGFR3 Kinase-Glo kinase assay; assay type: biochemical; parameters: VEGFR3 (residues M800-Y1363); purchased Upstate (Billerica, MA, USA)
Procedure: The FLT3 inhibitors, BPR1J-340 and AC220, were synthesized by our laboratory. The histone deacetylase inhibitor vorinostat (SAHA) was purchased from SelleckBio (Houston, TX, USA). All inhibitors were dissolved in dimethylsulfoxide (DMSO) at a stock concentration of 10 mM. The anti-FLT3 (sc-480, Santa Cruz Biotechnology, Santa Cruz, CA, USA), anti-pFLT3-Tyr591 (#3461, Cell Signaling Technology, Beverly, MA, USA) anti-STAT5 (#9363, Cell Signaling Technology), anti-pSTAT5–Tyr694 (#9351, Cell Signaling Technology), anti-cleaved poly ADP-ribose polymerase (PARP) (#9542, Cell Signaling Technology), anti-Mcl-1 (#4572, Cell Signaling Technology), anti-caspase 3 (#9662, Cell Signaling Technology) and anti-β-actin (Gtx110546, GeneTex, Irvine, CA, USA) antibodies were purchased for Western blotting analysis. The preparation of recombinant proteins, FLT3 (residues Y567-S993), VEGFR1 (residues R781-I1338) and VEGFR2 (residues V789-V1356), for biochemical kinase assay was described previously. The VEGFR3 (residues M800-Y1363) proteins were purchased from Upstate (Billerica, MA, USA).
The FLT3 and VEGFR1/2 Kinase-Glo kinase assays were performed as reported by our earlier study. […] The kinase inhibition profiling and inhibitory activity of FLT3-D835Y, CSF1R, and TRKA were determined by Invitrogen SelectScreen® kinase profiling service (Carlsbad, California, USA).

Chain of FLT4 (VEGFR3) (P35916 800-1363): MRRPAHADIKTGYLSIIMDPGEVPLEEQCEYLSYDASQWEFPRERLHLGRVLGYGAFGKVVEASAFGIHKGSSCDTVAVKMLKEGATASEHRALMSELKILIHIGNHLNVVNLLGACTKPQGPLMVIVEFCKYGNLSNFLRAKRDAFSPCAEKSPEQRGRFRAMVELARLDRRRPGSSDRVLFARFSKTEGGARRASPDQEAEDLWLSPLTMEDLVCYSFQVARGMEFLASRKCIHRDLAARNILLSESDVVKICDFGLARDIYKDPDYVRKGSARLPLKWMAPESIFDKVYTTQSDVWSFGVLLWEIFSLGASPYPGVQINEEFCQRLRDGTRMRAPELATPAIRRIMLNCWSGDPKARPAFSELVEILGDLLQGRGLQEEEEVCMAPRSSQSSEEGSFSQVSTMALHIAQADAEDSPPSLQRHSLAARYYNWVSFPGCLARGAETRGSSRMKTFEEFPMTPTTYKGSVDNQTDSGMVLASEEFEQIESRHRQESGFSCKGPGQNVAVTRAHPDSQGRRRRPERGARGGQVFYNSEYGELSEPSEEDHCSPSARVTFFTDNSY

Which results are given for `CCc1cc(NC(=O)NCc2ccc(-c3cc(NC(=O)c4ccc(CN5CCN(C)CC5)cc4)[nH]n3)cc2)no1` [BPR1J-340, N1-(3-4-[([(5-ethyl-3-isoxazolyl)amino]carbonylamino)methyl]phenyl-1H-5-pyrazolyl)-4-[(4-methylpiperazino)methyl]benzamide]?
IC50 [1]: 0.01 to 0.1 µM; IC50 [2]: 0.01 to 0.1 µM; IC50 [3]: 0.01 to 0.1 µM and ~0.1 µM; IC50 [4]: 0.029 ± 0.007 µM
